These results are taken from patent publication US12427146B2, “C-terminal SRC kinase inhibitors” (INVENTISBIO CO., LTD., priority 2018, dated 2025).

One experiment concerns the target LCK protein (Homo sapiens (Human), UniProt P06239). Put plainly: LCK Inhibition Assay. In kind it is biochemical. On the procedure: Test compound was dissolved in DMSO at 10 mM. 45 uL of compound was transfer into a 384-well compound source plate (LABCYTE cat #P-05525) and serially diluted at 1:3 ratio to create a 11-point dilutions. The same volume of DMSO was adopted as high control. 20 nL of these compounds DMSO dilutes were dispensed into a new 384-well assay plate by Echo 550. LCK protein (0.50 nM, Cama Biosciences, cat #08-170), florescent labeled substrate FLPeptide4 (2 μM, PerkinElmer, cat #760348) was prepared in kinase assay buffer (50 mM HEPES (pH 7.5), 10 mM MgCl2, 0.01% Brij-35, 2 mM DTT and 0.005 mg/ml BSA). 15 uL of kinase assay buffer containing LCK protein and substrate was transferred to assay plate and incubate at RT for 30 minutes. Kinase assay buffer supplemented with substrate peptides was employed as low control to monitor the background. 400 μM ATP was prepared in kinase assay buffer and 5 μL of ATP solution was added to each well to start the reaction. The assay plate was incubated at 25° C. for 90 minutes and the reaction was stopped by adding 40 μL of 0.5 M EDTA.
(§1) Phosphorylated fluorescent-tagged peptides were differentiated from non-phosphorylated peptides by separating using Caliper EZ Reader II and the detection was directly converted to conversion ratio.
(§2) For estimation of IC50, the % substrate conversion values are transformed to % Inhibition Ratio by applying the following equation: […]

In another experiment the target is CSK protein (Homo sapiens (Human), UniProt P41240). Kind of experiment: CSK Inhibition Assay. In kind it is biochemical. On the procedure:
Test compound was dissolved in DMSO at 10 mM. 45 uL of compound was transferred into a 384-well compound source plate (LABCYTE cat #P-05525) and serially diluted at 1:3 ratio to create a 11-point dilutions. The same volume of DMSO was adopted as high control. 20 nL of these compounds DMSO dilutes were dispensed into a new 384-well assay plate by Echo 550. […] 15 uL of kinase assay buffer containing CSK protein and substrate was transferred to assay plate and incubated at RT for 30 minutes. Kinase assay buffer supplemented with substrate peptides was employed as low control to monitor the background. 4 μM of ATP was prepared in kinase assay buffer and 5 μL of ATP solution was added to each well to start the reaction. The assay plate was incubated at 25° C. for 90 minutes and the reaction was stopped by adding 40 μL of 0.5 M EDTA.
as §1, §2

Molecules are shown by their SMILES.

Sequence of LCK protein (P06239 whole entry): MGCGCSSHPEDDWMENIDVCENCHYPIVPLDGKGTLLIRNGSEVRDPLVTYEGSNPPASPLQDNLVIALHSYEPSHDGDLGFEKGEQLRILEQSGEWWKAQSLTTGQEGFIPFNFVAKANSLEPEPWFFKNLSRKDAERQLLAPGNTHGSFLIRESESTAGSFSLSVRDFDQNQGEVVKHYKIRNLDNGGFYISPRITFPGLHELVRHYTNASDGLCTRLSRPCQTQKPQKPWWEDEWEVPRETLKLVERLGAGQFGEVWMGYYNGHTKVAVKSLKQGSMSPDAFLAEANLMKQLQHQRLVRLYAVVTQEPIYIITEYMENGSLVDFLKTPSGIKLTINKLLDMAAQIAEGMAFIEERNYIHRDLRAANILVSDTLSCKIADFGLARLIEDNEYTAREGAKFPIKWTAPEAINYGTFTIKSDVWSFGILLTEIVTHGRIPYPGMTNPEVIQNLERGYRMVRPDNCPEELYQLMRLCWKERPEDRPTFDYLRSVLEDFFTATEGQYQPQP
Sequence of CSK protein (P41240 whole entry): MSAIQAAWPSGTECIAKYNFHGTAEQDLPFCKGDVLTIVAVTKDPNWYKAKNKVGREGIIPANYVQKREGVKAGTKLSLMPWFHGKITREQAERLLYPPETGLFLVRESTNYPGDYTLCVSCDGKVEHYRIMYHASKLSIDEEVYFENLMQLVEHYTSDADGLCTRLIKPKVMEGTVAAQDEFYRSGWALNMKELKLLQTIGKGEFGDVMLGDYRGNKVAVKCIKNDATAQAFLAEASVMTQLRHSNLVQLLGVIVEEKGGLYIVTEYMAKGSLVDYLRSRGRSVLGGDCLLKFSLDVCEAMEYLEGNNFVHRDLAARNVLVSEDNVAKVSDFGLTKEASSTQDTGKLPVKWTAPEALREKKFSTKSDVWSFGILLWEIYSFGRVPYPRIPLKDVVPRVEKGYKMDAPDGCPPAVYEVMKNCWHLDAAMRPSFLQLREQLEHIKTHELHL

What is called IC50 is the concentration that gives 50% inhibition. Take `CCNc1nccc(-c2sc(-c3ccc(F)cn3)nc2-c2cccc(NS(=O)(=O)c3c(F)ccc(C)c3F)c2F)n1` [Compound 56]: the results for the half-maximal inhibitory concentration (IC50) against LCK protein and against CSK protein were more than 1000 nM and 47 nM, respectively.

On to `CNc1nccc(-c2sc(-c3ccc(F)cn3)nc2-c2cccc(NS(=O)(=O)c3c(F)ccc(Cl)c3F)c2F)n1` [Compound 58], for which the IC50 at LCK protein is more than 1000 nM; against CSK protein it was 31.5 nM.

Regarding `COC(=O)NCCNc1nccc(-c2sc(-c3ccccc3)nc2-c2cccc(NS(=O)(=O)c3c(F)cccc3F)c2F)n1` [Compound 59], the IC50 against LCK protein is more than 1000 nM; at CSK protein, 68.4 nM.

In the case of `COC(=O)N[C@H](C)CNc1nccc(-c2sc(-c3ccccc3)nc2-c2cccc(NS(=O)(=O)c3c(F)cccc3F)c2F)n1` [Compound 60], the results for the IC50 against LCK protein and on CSK protein were more than 1000 nM and 120 nM, respectively.

For the compound `Cc1ccc(Cl)c(S(=O)(=O)Nc2cccc(-c3nc(-c4cncc(F)c4)sc3-c3ccnc(N)n3)c2F)c1Cl` [Compound 61], the IC50 is more than 1000 nM at LCK protein and 12.6 nM at CSK protein.

Turning to `Nc1nccc(-c2sc(-c3cncc(F)c3)nc2-c2cccc(NS(=O)(=O)c3c(Cl)cccc3Cl)c2F)n1` [Compound 62], the half-inhibitory concentration (IC50) against LCK protein is more than 1000 nM; against CSK protein it was 9.4 nM.

Turning to `CNc1nccc(-c2sc(-c3cncnc3)nc2-c2cccc(NS(=O)(=O)c3c(F)cccc3F)c2F)n1` [Compound 63], the IC50 on LCK protein was more than 1000 nM; against CSK protein, 20.6 nM.

For `CNc1nccc(-c2sc(-c3cncc(F)c3)nc2-c2cccc(NS(=O)(=O)c3c(F)cc(OC)cc3F)c2F)n1` [Compound 64], the IC50 against LCK protein is more than 1000 nM; against CSK protein, 18.3 nM.

With `CNc1nccc(-c2sc(-c3ccc(C)nn3)nc2-c2cccc(NS(=O)(=O)c3c(F)ccc(C)c3F)c2F)n1` [Compound 65], the IC50 is more than 1000 nM against LCK protein and 14.9 nM at CSK protein.

For the compound `O=S(=O)(Nc1cccc(-c2nc(-c3cncc(F)c3)sc2-c2ccnc(NCCO)n2)c1F)c1c(F)cccc1F` [Compound 66], the values for the IC50 against LCK protein and on CSK protein were more than 1000 nM and 19.6 nM, respectively.

`NCCNc1nccc(-c2sc(-c3cncc(F)c3)nc2-c2cccc(NS(=O)(=O)c3c(F)cccc3F)c2F)n1` [Compound 67]: the IC50 is more than 1000 nM at LCK protein and 617 nM at CSK protein.

`O=S(=O)(Nc1cccc(-c2nc(-c3cncc(F)c3)sc2-c2ccnc(NC3CC3)n2)c1F)c1c(F)cccc1F` [Compound 68]: the IC50 on LCK protein was more than 1000 nM; on CSK protein it was 16.2 nM.

For `CNc1nccc(-c2sc(-c3cnc(C)nc3)nc2-c2cccc(NS(=O)(=O)c3c(F)ccc(C)c3F)c2F)n1` [Compound 69], the concentration for half-maximal inhibition (IC50) against LCK protein was more than 1000 nM; against CSK protein it was 13.4 nM.

As to `CNc1nccc(-c2sc(-c3ccc(F)cc3)nc2-c2cccc(NS(=O)(=O)c3c(F)ccc(C)c3F)c2F)n1` [Compound 70], the IC50 against LCK protein is more than 1000 nM; against CSK protein, 92.3 nM.

Take `CNc1nccc(-c2sc(-c3cccc(F)c3)nc2-c2cccc(NS(=O)(=O)c3c(F)ccc(C)c3F)c2F)n1` [Compound 71]: the IC50 at LCK protein was more than 1000 nM; on CSK protein, 41.8 nM.

In the case of `CNc1nccc(-c2sc(-c3cncc(F)c3)nc2-c2cc(OC)cc(NS(=O)(=O)c3c(F)cccc3F)c2F)n1` [Compound 72], the IC50 on LCK protein was more than 1000 nM; against CSK protein, 26.1 nM.

As for `CNc1nccc(-c2sc(-c3cncnc3)nc2-c2cccc(NS(=O)(=O)c3c(F)ccc(C)c3F)c2F)n1` [Compound 73], the figures for the IC50 against LCK protein and against CSK protein were more than 1000 nM and 14.8 nM, respectively.

For `CNc1nccc(-c2sc(-c3cncc(F)c3)nc2-c2cccc(NS(=O)(=O)c3c(F)cccc3F)c2F)n1` [Compound 74], the IC50 on LCK protein was more than 1000 nM; at CSK protein, 8.8 nM.

As to `CNc1nccc(-c2sc(-c3cncc(C(F)(F)F)c3)nc2-c2cccc(NS(=O)(=O)c3c(F)cccc3F)c2F)n1` [Compound 75], the IC50 at LCK protein is more than 1000 nM; on CSK protein, 73.9 nM.

For the compound `CNc1nccc(-c2sc(-c3cnccn3)nc2-c2cccc(NS(=O)(=O)c3c(F)cccc3F)c2F)n1` [Compound 76], the IC50 was more than 1000 nM against LCK protein and 19.1 nM against CSK protein.

Consider `CNc1nccc(-c2sc(-c3ccc(F)cn3)nc2-c2cccc(NS(=O)(=O)c3c(F)cc(F)cc3F)c2F)n1` [Compound 77], for which the IC50 on LCK protein was more than 1000 nM; at CSK protein, 85.5 nM.

On to `CC(C)Nc1nccc(-c2sc(-c3cncc(F)c3)nc2-c2cccc(NS(=O)(=O)c3c(F)cccc3F)c2F)n1` [Compound 78], for which the IC50 at LCK protein was more than 1000 nM; at CSK protein, 11.8 nM.

Turning to `O=S(=O)(Nc1cccc(-c2nc(-c3cncc(F)c3)sc2-c2ccnc(NCCO)n2)c1F)c1c(Cl)cccc1Cl` [Compound 79], the IC50 is more than 1000 nM against LCK protein and 7.6 nM against CSK protein.

For `O=S(=O)(Nc1cccc(-c2nc(-c3cncc(F)c3)sc2-c2ccnc(NC3CC3)n2)c1F)c1c(Cl)cccc1Cl` [Compound 80], the IC50 against LCK protein was more than 1000 nM; on CSK protein, 6 nM.

As for `Nc1nccc(-c2sc(-c3ccccc3)nc2-c2cccc(NS(=O)(=O)c3ccc4[nH]ncc4c3)c2F)n1` [Compound 83], the IC50 against LCK protein is more than 1000 nM; on CSK protein it was 842 nM.

For `Nc1nccc(-c2c(-c3cccc(NS(=O)(=O)c4c(F)cccc4F)c3F)nc(-c3ccccc3)n2O)n1` [Compound 84], the IC50 against LCK protein is more than 1000 nM; against CSK protein it was 133 nM.

As for `Nc1nccc(-c2[nH]c(-c3ccccc3)nc2-c2cccc(NS(=O)(=O)c3c(F)cccc3F)c2F)n1` [Compound 85], the IC50 against LCK protein was 100 to 1000 nM; on CSK protein it was 33.2 nM.

With `CCc1ccn2c(-c3ccnc(N)n3)c(-c3cccc(NS(=O)(=O)c4c(F)cccc4F)c3F)nc2c1` [Compound 92], the IC50 on LCK protein was more than 1000 nM; against CSK protein, 89.2 nM.

With `Cc1cccn2c(-c3ccnc(N)n3)c(-c3cccc(NS(=O)(=O)c4c(F)cccc4F)c3F)nc12` [Compound 93], the IC50 at LCK protein was more than 1000 nM; against CSK protein it was 41.8 nM.

As to `NC(=O)c1ccn2c(-c3ccnc(N)n3)c(-c3cccc(NS(=O)(=O)c4c(F)cccc4F)c3F)nc2c1` [Compound 94], the IC50 on LCK protein is more than 1000 nM; on CSK protein, 98.6 nM.

As to `CN(C)c1ccn2c(-c3ccnc(N)n3)c(-c3cccc(NS(=O)(=O)c4c(F)cccc4F)c3F)nc2c1` [Compound 95], the IC50 at LCK protein is more than 1000 nM; against CSK protein, 71.6 nM.

Regarding `Nc1nccc(-c2c(-c3cccc(NS(=O)(=O)c4c(F)cccc4F)c3F)nc3cc(C(=O)O)ccn23)n1` [Compound 96], the values for the IC50 at LCK protein and on CSK protein were more than 1000 nM and 127 nM, respectively.

`CCOc1ccn2c(-c3ccnc(N)n3)c(-c3cccc(NS(=O)(=O)c4c(F)cccc4F)c3F)nc2c1` [Compound 97]: the IC50 on LCK protein was more than 1000 nM; at CSK protein it was 98.2 nM.

For `CNc1nccc(-c2c(-c3cccc(NS(=O)(=O)c4c(F)cccc4F)c3F)nc3cc(OC)ccn23)n1` [Compound 98], the IC50 at LCK protein was more than 1000 nM; against CSK protein, 78.3 nM.

With `COc1cc2nc(-c3cccc(NS(=O)(=O)c4c(F)cccc4F)c3F)c(-c3ccnc(N)n3)n2cc1Cl` [Compound 100], the IC50 at LCK protein was more than 1000 nM; on CSK protein, 137 nM.

On to `N#Cc1ccn2c(-c3ccnc(N)n3)c(-c3cccc(NS(=O)(=O)c4c(F)cccc4F)c3F)nc2c1` [Compound 101], for which the IC50 on LCK protein was more than 1000 nM; on CSK protein, 436 nM.

With `CNc1nccc(-c2c(-c3cccc(NS(=O)(=O)c4c(F)ccc(C)c4F)c3F)nc3c(F)cccn23)n1` [Compound 102], the results for the IC50 against LCK protein and at CSK protein were more than 1000 nM and 96.5 nM, respectively.

For the compound `CNc1nccc(-c2c(-c3cccc(NS(=O)(=O)c4c(F)ccc(C)c4F)c3F)nc3cc(OC)ccn23)n1` [Compound 103], the results for the IC50 on LCK protein and on CSK protein were more than 1000 nM and 51.8 nM, respectively.

Take `CC(C)Oc1ccn2c(-c3ccnc(N)n3)c(-c3cccc(NS(=O)(=O)c4c(F)cccc4F)c3F)nc2c1` [Compound 104]: the IC50 was more than 1000 nM against LCK protein and 134 nM at CSK protein.

In the case of `Nc1nccc(-c2c(-c3cccc(NS(=O)(=O)c4c(F)cccc4F)c3F)nc3cc(C(F)(F)F)ccn23)n1` [Compound 105], the IC50 is more than 1000 nM at LCK protein and 400 nM at CSK protein.

As to `CNc1nccc(-c2c(-c3cccc(NS(=O)(=O)c4c(F)ccc(C)c4F)c3F)nc3ccc(F)cn23)n1` [Compound 106], the IC50 is more than 1000 nM at LCK protein and 91.7 nM against CSK protein.

Take `CNc1nccc(-c2c(-c3cccc(NS(=O)(=O)c4c(F)ccc(C)c4F)c3F)nc3cc(F)ccn23)n1` [Compound 107]: the IC50 at LCK protein was more than 1000 nM; against CSK protein, 113 nM.
